Target: T1, human glutaminase GLS1 (Homo sapiens, UniProt O94925)
T1 sequence (O94925 55-669): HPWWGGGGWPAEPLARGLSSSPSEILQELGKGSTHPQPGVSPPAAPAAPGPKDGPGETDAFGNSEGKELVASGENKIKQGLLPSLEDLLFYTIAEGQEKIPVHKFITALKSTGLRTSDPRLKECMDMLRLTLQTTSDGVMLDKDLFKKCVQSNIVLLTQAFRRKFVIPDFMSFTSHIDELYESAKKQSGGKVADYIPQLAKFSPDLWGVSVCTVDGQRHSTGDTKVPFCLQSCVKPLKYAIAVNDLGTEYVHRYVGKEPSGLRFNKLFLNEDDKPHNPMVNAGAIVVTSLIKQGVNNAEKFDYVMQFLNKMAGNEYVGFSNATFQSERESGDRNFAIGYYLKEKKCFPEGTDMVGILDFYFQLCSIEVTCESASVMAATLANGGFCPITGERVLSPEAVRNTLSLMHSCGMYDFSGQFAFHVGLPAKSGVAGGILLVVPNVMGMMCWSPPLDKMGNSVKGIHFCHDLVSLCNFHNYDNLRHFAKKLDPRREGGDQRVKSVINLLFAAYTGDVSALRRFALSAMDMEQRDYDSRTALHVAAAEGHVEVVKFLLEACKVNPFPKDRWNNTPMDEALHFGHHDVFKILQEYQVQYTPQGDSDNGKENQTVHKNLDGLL
Assay: Catalysis of 2MeGln hydrolysis by GLS1 glutaminase
Type: biochemical
Procedure: The procedure was adapted from an existing protocol. To a reaction mixture in a 1.5 mL microcentrifuge tube containing 10 mM rac-2MeGln or L-Gln-^13C2 in 100 mM phosphate pH 7.4 buffer made in 20% atom ^18O water, recombinant GLS1 (final concentration: 5 ng/mL) was added. The tubes were incubated in a preheated thermomixer at 37 °C and periodically shaken at 600 rpm (30 s on, 30 s off). 5 μL aliquots were collected in triplicate every 5 min and immediately diluted with 195 μL of cold 60% ACN containing 10 μM Glu-d5 and Gln-d5 as internal standards in a 96 well plate. After collecting all samples, the plate was shaken at 1000 rpm for 5 min at room temperature, and then stored at − 80 °C. Before analysis the plate was thawed and 10 μL aliquots of the extracted reaction mixtures were diluted with 190 μL of 90% acetonitrile.
The quantification of the newly formed 2MeGlu in the presence of the preexisting trace amounts was performed in the following way. Peak area ratio of Glu-^13C2 to Glu-^13C2^18O was calculated in all samples containing Glu-^13C2. The mean ratio value was then applied to calculate the hypothetical peak area of the newly formed 2MeGlu based on the directly measured 2MeGlu-^18O peak area. The ratio of the newly formed 2MeGlu peak area and the total 2MeGlu peak area was applied to calculate the concentration of the newly formed 2MeGlu from the total 2MeGlu concentration determined directly using the calibration curve.

## CC(N)(CCC(N)=O)C(=O)O (racemic) [rac-2MeGln, rac-2-methylglutamine]
  Substrate for GLS1: at least one enantiomer of 2MeGln is a substrate for human GLS1, albeit relatively slow
10 mM substrate
  Apparent GLS1 reaction rate, fold lower compared to Gln: approximately 35 fold
10 mM substrate, 5 ng/mL enzyme, phosphate pH 7.4
  Apparent reaction rate of GLS1 hydrolysis: 1.9 µM/min

Reference: PMC8047011, “Enantiomers of 2-methylglutamate and 2-methylglutamine selectively impact mouse brain metabolism and behavior” (Scientific Reports, 2021)
